The assay relates to APP/PS1 mice. The assay can be described thus: Auditory-cued fear conditioning (hippocampal-independent) after i.c.v. infusion. In kind it is in vivo, mouse. To be noted: wild-type vs APP/PS1 mice, with or without VO-OHpic. The protocol: APP/PS1 and wild-type mice were anesthetized with isofluorane, and i.c.v. delivery cannulas (brain alzet kit III) were implanted with a stereotaxic frame (KOPF Instruments) at the following coordinates according to the bregma: AP, −0.5 mm; ML, 1 mm; and DV, −2.2 mm. Osmotic minipumps (Alzet) were filled with artificial cerebrospinal fluid (aCSF) with or without PTEN inhibitor VO-OHpic (2.5 μM) and equilibrated in 0.9% NaCl at 37° C. for 48 hours. They were attached to the i.c.v. cannula tubing and subcutaneously implanted at the back. After 21 days, behavioral testing was started as described herein. […]
Fear conditioning. […] The animals' behavior was scored by an observer blind to the treatment condition. Using a time-sampling procedure every 2 seconds, each mouse was scored blindly as either freezing or active at the instant the sample was taken. […]
It was posited that if early Aβ-induced cognitive impairment results from a general synaptic bias toward LTD events (Selkoe (2002) Science 298:789-791), dampening this form of synaptic plasticity might prevent cognitive decay. Therefore, it was determined whether in vivo inhibition of PTEN, a lipid phosphatase that is involved in LTD (Jurado, et al. (2010) EMBO J. 29:2827-2840), would rescue cognitive deficits in APP/PS1 mice. […]

Regarding `O=C(O)c1ncccc1O.O=C(O)c1ncccc1O.[O]=[V][O-]` [VO-OHpic], the “auditory-cued fear conditioning (percentage freezing to the tone)” value was “did not show significant difference”.

These data come from patent US20170165317A1, “METHOD FOR MITIGATING OR ALLEVIATING SYNAPTIC AND COGNITIVE DEFICITS” (Trustees of Dartmouth College, priority 2013, published 2017).
